The values below are quoted from earlier work in patent US20110077278A1, “Antifungal compositions and methods” (Troy Corporation, priority 2009, published 2011).

Each structure is given as a SMILES string.

The subject of one series is certain fungi. The note with it: BBIT in the presence of sodium omadine and certain fungi; US 6,861,395.
The conditions of series [1]: in metal working fluids; BBIT compared with IPBC; reported by US 6,861,395.

On to `CCCCn1sc2ccccc2c1=O` [BBIT, 2-n-butyl-1,2-benzisothiazolin-3-one], for which the synergy entry in the series with certain fungi was “exhibits synergy in the presence of sodium omadine and certain fungi”. Further, the “stability to high temperature storage” value in series [1] is given as “considerably more stable to high temperature storage than IPBC”.
